Activity calls are given as the source filed them. The rule behind the calls is not given here.
Assays:
[1] = organism: Homo sapiens; experiment: Binding affinity to 14C3 DNA triplex assessed as melting temperature change from triplex to duplex DNA forms by UV absorption spectrometry
[2] = organism: Homo sapiens; experiment: Binding affinity to 14C3 DNA triplex assessed as melting temperature change from duplex to single strand DNA forms by UV absorption spectrometry
[3] = organism: Homo sapiens; experiment: Binding affinity to 14C3 DNA triplex assessed as melting temperature for transition from triplex to duplex DNA forms by UV absorption spectrometry
[4] = organism: Homo sapiens; experiment: Binding affinity to 14C3 DNA triplex assessed as melting temperature for transition from duplex to single strand DNA forms by UV absorption spectrometry
[5] = organism: Homo sapiens; experiment: Binding affinity to 14C3 DNA triplex assessed as stabilization of triplex DNA form

SMILES | ΔTm [1] | ΔTm [2] | Tm [3] | Tm [4] | Activity [5]
NCCCNc1cc2c(cc1F)C(=O)c1nc3ccccc3c(=O)n1-2 | 19.3 °C | 4.8 °C | 39.8 °C | 63.8 °C | 
COc1ccc2c(ccc3c2[nH]c2c(C)cnc(NCCCN(C)CCCN)c23)c1 |  |  |  |  | Active
NCCCNc1ccc2c(c1)-n1c(nc3ccccc3c1=O)C2=O | 13 °C | 5.7 °C | 33.5 °C | 64.7 °C | 
COc1ccc2c(ccc3[nH]c4c(C)cnc(NCCCN)c4c32)c1 |  |  |  |  | Active
CN(CCCN)c1cc2c(cc1F)C(=O)c1nc3ccccc3c(=O)n1-2 | 24.8 °C | 2.8 °C | 45.3 °C | 61.8 °C | 
CN(CCCN)c1ccc2c(c1)-n1c(nc3ccccc3c1=O)C2=O | 18.8 °C | 3.3 °C | 39.3 °C | 62.3 °C | 
